Source: patent US10947188B2, “Small molecule ferroptosis inducers” (THE TRUSTEES OF COLUMBIA UNIVERSITY IN THE CITY OF NEW YORK, priority 2016, dated 2021)
Read-outs that look alike come from different tables or passages of the source. Where a SMILES comes first, the peptide text is derived from it. The star is where a group is joined. Cbz = O=C(OCc1ccccc1)*

Tested on: HT-1080
Test: Modulatory profiling: Alamar Blue viability, lethal compound cotreated with death modulator (EC50, AUC)
Format: cell-based
Set-up: AUC, modulator HT.3MA / AUC, modulator HT.ALLN / AUC HT.ATA / AUC HT.ActD / AUC HT.BHA / AUC HT.BHT / AUC HT.BocD / AUC HT.CHX / AUC HT.Co2+ / AUC HT.DPQ / AUC HT.EGTA / AUC HT.Lmim / AUC HT.NAD+ / AUC HT.Nec-1 / AUC HT.SP600125 / AUC HT.TLCK / AUC HT.U0126: unit not given beside the values
Conditions: for AUC HT.ATA: HT-1080, modulator ATA; for AUC HT.ActD: HT-1080, modulator ActD; for AUC HT.BHA: HT-1080, modulator BHA; for AUC HT.BHT: HT-1080, modulator BHT; for AUC HT.BocD: HT-1080, modulator BocD; for AUC HT.CHX: HT-1080, modulator CHX; for AUC HT.Co2+: HT-1080, modulator Co2+; for AUC HT.CspA: HT-1080, modulator CspA; for AUC HT.DPQ: HT-1080, modulator DPQ; for AUC HT.Gd3+: HT-1080, modulator Gd3+; for AUC HT.LNAME: HT-1080, modulator LNAME; for AUC HT.Lmim: HT-1080, modulator Lmim; for AUC HT.NAD+: HT-1080, modulator NAD+; for AUC HT.NMMA: HT-1080, modulator NMMA; for HT.atoc (AUC) / HT.bCarotene (AUC) / HT.deferox (AUC) / HT.digoxin (AUC) / HT.trolox (AUC) / HT.zVAD (AUC) / EC50: HT-1080; for HT.atoc (AUC): modulator atoc; for HT.bCarotene (AUC): modulator bCarotene; for HT.deferox (AUC): modulator deferox; for HT.digoxin (AUC): modulator digoxin; for HT.trolox (AUC): modulator trolox; for HT.zVAD (AUC): modulator zVAD; for EC50: Homo sapiens, HT-1080, 48 h, 48 h; for AUC, modulator HT.3MA / AUC, modulator HT.ALLN: HT-1080 cells, modulatory profile value (AUC); for AUC, modulator HT.3MA: lethal compound cotreated with modulator 3MA; for AUC, modulator HT.ALLN: lethal compound cotreated with modulator ALLN; for AUC HT.Nec-1: HT-1080, modulator Nec-1; for AUC HT.Pepstatin: HT-1080, modulator Pepstatin; for AUC HT.SP600125: HT-1080, modulator SP600125; for AUC HT.TLCK: HT-1080, modulator TLCK; for AUC HT.U0126: HT-1080, modulator U0126

| SMILES | AUC HT.ATA | AUC HT.ActD | AUC HT.BHA | AUC HT.BHT | AUC HT.BocD | AUC HT.CHX | AUC HT.Co2+ | AUC HT.CspA | AUC HT.DPQ | AUC HT.Gd3+ | AUC HT.LNAME | AUC HT.Lmim | AUC HT.NAD+ | AUC HT.NMMA | HT.atoc (AUC) | HT.bCarotene (AUC) | HT.deferox (AUC) | HT.digoxin (AUC) | HT.trolox (AUC) | HT.zVAD (AUC) | also measured |
| --- | --- | --- | --- | --- | --- | --- | --- | --- | --- | --- | --- | --- | --- | --- | --- | --- | --- | --- | --- | --- | --- |
| COC(=O)[C@@H]1Cc2c([nH]c3ccccc23)C(C)(C)N1C(=O)CCl [CIL79] | −0.05302 | −0.04021 | 0.3909 | 0.3644 | −0.002385 | 0.02794 | 0.2948 | −0.03389 | 0.04764 | −0.02579 | 0.01224 | 0.4052 | −0.004292 | 0.003194 | 0.4488 | 0.005675 | 0.5494 | −0.0705 | 0.4225 | 0.003682 | AUC HT.EGTA (HT-1080, modulator EGTA): 0.02262; effect of ferroptosis inhibitors (iron chelators and lipophilic antioxidants) on lethality in modulatory profiling (HT-1080 and BJeLR): suppression by canonical ferroptosis inhibitors; EC50 (DMSO): 0.271 µM; EC50 (cotreated with MEK inh U0126): 14.3 µM; EC50 (cotreated with antioxidant Atoc): 11.7 µM; EC50 (cotreated with antioxidant BHA): 10.1 µM; EC50 (cotreated with antioxidant BHT): 6.3 µM; EC50 (cotreated with antioxidant Trolox): 10.2 µM; EC50 (cotreated with iron-chelator Deferoxamine): 32.4 µM; EC50 (cotreated with iron-chelator Lmim): 12 µM |
| O=C(/C=C/c1cccc(NC(=O)c2cccs2)c1)c1ccccc1 [CIL33] | 0.04655 | −0.03269 | −0.02938 | −0.1089 | 0.006307 | 0.06763 | 0.1418 | −0.03213 | 0.02728 | −0.02182 | 0.003047 | −0.007068 | −0.0189 | −0.002248 | 0.04094 | −0.01651 | 0.1056 | −0.03413 | −0.05079 | 0.03457 | AUC HT.EGTA (HT-1080, modulator EGTA): −0.007461; AUC, modulator HT.3MA: 0.08789; AUC, modulator HT.ALLN: 0.04123 |
| CC(C)C[C@@H](C=O)NC(=O)[C@H](CC(C)C)NC(=O)[C@H](CC(C)C)NC(=O)OCc1ccccc1 [MG132, reference compound] (Cbz-Leu-Leu-Leu-aldehyde) | 0.005768 | −0.06417 | −0.1238 | −0.1271 | 0.002051 | 0.04854 | −0.05705 | −0.3221 | −0.02406 | −0.011 | 5.1006E−05 | 0.001338 | 0.03798 | 0.01064 | 0.04884 | 7.0861E−05 | −0.1162 | 0.08352 | −0.01616 | −0.0992 | AUC HT.EGTA: 0.007775; AUC HT.Nec-1: −0.09728; AUC HT.Pepstatin: −0.02733; AUC HT.SP600125: −0.03431; AUC HT.TLCK: 0.01546; AUC HT.U0126: −0.071; AUC, modulator HT.3MA: −0.03392; AUC, modulator HT.ALLN: −0.2149 |
| CC(C)C[C@H](NC(=O)[C@H](CC(C)C)NC(=O)[C@H](CC(C)C)NC(=O)OCc1ccccc1)B(O)O [MG262] | 0.0332 | −0.05854 | −0.0765 | −0.1219 | 0.007582 | −0.003977 | −0.04425 | −0.2145 | 0.008104 | −0.003168 | 0.007002 | 0.001457 | 0.07679 | −0.004229 | 0.05222 | −0.009255 | −0.08465 | 0.05597 | −0.02068 | −0.05837 | AUC HT.EGTA (HT-1080, modulator EGTA): −0.001152; AUC HT.Nec-1: −0.06817; AUC HT.Pepstatin: −0.006069; AUC HT.SP600125: −0.036; AUC HT.TLCK: 0.03566; AUC HT.U0126: −0.06664; AUC, modulator HT.3MA: −0.06563; AUC, modulator HT.ALLN: −0.1356 |
| COC(C)(C)C#CC(=O)c1cccc2ccccc12 [CIL34] | 0.05661 | −0.03224 | 0.01628 | −0.1102 | −0.007476 | 0.0461 | 0.09926 | −0.02181 | 0.0333 | −0.02283 | −0.00517 | −0.002139 | −0.005535 | −0.003031 | 0.08125 | 0.001321 | 0.1115 | −0.01032 | −0.02993 | 0.007148 | AUC HT.EGTA (HT-1080, modulator EGTA): −0.002035; AUC, modulator HT.3MA: 0.1255; AUC, modulator HT.ALLN: 0.1551 |
| O=C1c2c(O)ccc(O)c2C(=O)c2c(NCCNCCO)ccc(NCCNCCO)c21 [Mitoxantrone] | 0.02422 | −0.02073 | 0.02091 | −0.0249 | 0.06802 | 0.04002 | 0.3817 | −0.1127 | 0.006504 | 0.03227 | 0.01298 | 0.05678 | 0.1502 | 0.0236 | 0.04839 | −0.003915 | 0.1001 | 0.1321 | −0.01388 | 0.03446 | AUC HT.EGTA (HT-1080, modulator EGTA): 0.01802; AUC HT.Nec-1: 0.01073; AUC HT.Pepstatin: 0.02067; AUC HT.SP600125: −0.01575; AUC HT.TLCK: 0.06003; AUC HT.U0126: −0.03205; AUC, modulator HT.3MA: 0.02955; AUC, modulator HT.ALLN: 0.07355 |
| COC(=O)c1ccc([C@@H]2c3[nH]c4ccccc4c3C[C@@H](C(=O)OC)N2C(=O)CCl)cc1 [RSL3, reference compound] | −0.04539 | −0.08579 | 0.3798 | 0.2444 | −0.01184 | −0.05099 | −0.1948 | −0.1268 | 0.1653 | −0.01265 | −0.01081 | 0.3302 | 0.007883 | −0.00551 | 0.4471 | −0.01346 | 0.3508 | −0.1463 | 0.4213 | −0.01599 | AUC HT.EGTA (HT-1080, modulator EGTA): 0.03696; AUC HT.Nec-1: 0.07095; AUC HT.Pepstatin: −0.01327; AUC HT.SP600125: −0.1319; AUC HT.TLCK: 0.3152; AUC HT.U0126: 0.3972; AUC, modulator HT.3MA: −0.07471; AUC, modulator HT.ALLN: −0.03802 |
| Cc1cccnc1Nc1nc(-c2ccccn2)cs1 [CIL13] | 0.04672 | −0.04327 | −0.06288 | −0.104 | 0.09941 | 0.03999 | 0.2924 | 0.06243 | −0.01515 | −0.03072 | −0.07962 | −0.06102 | −0.04462 | −0.04118 | 0.1029 | 0.01006 | 0.05411 | 0.03512 | −0.03975 | 0.01164 | AUC HT.EGTA (HT-1080, modulator EGTA): 0.08353; AUC, modulator HT.3MA: 0.02535; AUC, modulator HT.ALLN: 0.01646; effect of cobalt (II) on lethality (modulatory profiles, CoCl2 supplementation): inhibited by cobalt (II) |
| Cc1ccc(O)c(/N=C/C=C/c2cccc(Br)c2)c1 [CIL27] | 0.04845 | 0.03171 | −0.0156 | −0.05537 | 0.003288 | 0.04576 | 0.04606 | −0.03639 | 0.02307 | −0.0168 | 0.001204 | −0.001055 | −0.0034 | −0.01331 | 0.04362 | −0.01166 | 0.1441 | 0.001262 | −0.05943 | −0.01508 | AUC HT.EGTA (HT-1080, modulator EGTA): 0.02604; AUC, modulator HT.3MA: 0.0766; AUC, modulator HT.ALLN: 0.1636 |
| CS[C@H]1SC[C@H]2C(=O)N(C)[C@@H](C(C)C)C(=O)OC[C@@H](NC(=O)c3cnc4ccccc4n3)C(=O)N[C@@H](C)C(=O)N(C)[C@@H]1C(=O)N(C)[C@@H](C(C)C)C(=O)OC[C@@H](NC(=O)c1cnc3ccccc3n1)C(=O)N[C@@H](C)C(=O)N2C [Echinomycin] | 0.04087 | 0.06604 | 0.02424 | −0.04076 | 0.07385 | 0.1436 | 0.1492 | −0.08426 | 0.006918 | 0.01526 | 0.01178 | 0.06784 | 0.178 | −0.0009733 | 0.1464 | −0.004968 | 0.1665 | 0.09969 | −0.02423 | 0.07367 | AUC HT.EGTA (HT-1080, modulator EGTA): 0.006916; AUC HT.Nec-1: 0.02093; AUC HT.Pepstatin: 0.006861; AUC HT.SP600125: 0.08228; AUC HT.TLCK: 0.006436; AUC HT.U0126: 0.01676; AUC, modulator HT.3MA: 0.3083; AUC, modulator HT.ALLN: 0.084 |
